Reference: patent US20230102379A1 (priority 2020, published 2023)
“Also recorded” adds a separate entry of the source. Like-named read-outs stand apart in the source and are kept apart here.

Assays:
L. crescens [1] = conditions: cited from earlier work
Xylella fastidiosa = assay type: cell-based; conditions: for diameter of inhibition: highest dose tested (2.12 μmol)
L. crescens [2] = assay type: cell-based, Liberibacter crescens
Vibrio harveyi = conditions: cited from earlier work
Micrococcus luteus = conditions: cited from earlier work
E. coli [3] = conditions: agar diffusion; cited from earlier work
MRSA = conditions: cited from earlier work
E. coli [4] = conditions: cited from earlier work
Bacillus megaterium = conditions: agar diffusion; cited from earlier work
[5] = tested on: transcriptional accessory protein; conditions: cited from earlier work
Xf = conditions: cited from earlier work

Compound: C/C=C/C(=O)n1nnc2ccccc21
- melting point: 91 to 93 °C

Compound: CC1(C)S[C@@H]2[C@H](NC(=O)COc3ccccc3)C(=O)N2[C@H]1C(=O)O [penicillin V]
- concentration providing nearly complete inhibition of L. crescens (L. crescens [1]): 0.1 µM

Compound: C/C=C/c1cc(O)cc(=O)o1 [Compound 5, (E)-4-hydroxy-6-(prop-1-en-1-yl)-2H-pyran-2-one]
- inhibition of Xf (in words) (Xylella fastidiosa): inactive
- melting point: 183 to 185 °C
- diameter of inhibition (L. crescens [2]; highest dose): 2.6 cm
- diameter of inhibition (L. crescens [2]; lower doses): 0.2 cm

Compound: CC(CCCCCCCCCCCCCCO[C@@H]1O[C@H](CO)[C@@H](O)[C@H](O)[C@@H]1O)C(O)=C1C(=O)C(C)N(C)C1=O (stereo partly shown) [Compound 24, epicoccamide A]
- antibacterial activity (in words) (Vibrio harveyi): modest antibacterial activity
- antibacterial activity (in words) (Micrococcus luteus): modest antibacterial activity
- antibiotic activity (in words) (E. coli [3]): no detectable antibiotic activity
- antibacterial activity (in words) (MRSA): modest antibacterial activity
- antibacterial activity (in words) (E. coli [4]): modest antibacterial activity
- antibiotic activity (in words) (Bacillus megaterium): no detectable antibiotic activity

Compound: Cc1c(Cl)cccc1Nc1ccccc1C(=O)O [Tolfenamic acid]
- inhibition of transcriptional accessory protein (in words) [5]: inhibits a transcriptional accessory protein

Compound: C/C=C/c1cc2c(c(=O)o1)C(=O)CC(C)O2 (single isomer, unassigned; (+)) [(+)-2, (+)-deoxyradicinin]
- inhibition of L. crescens (in words) (L. crescens [2]): potently inhibit

Compound: CCCc1cc2c(c(=O)o1)C(=O)CC(C)O2 (racemic) [Compound 3, 2-methyl-7-propyl-2,3-dihydropyrano[4,3-b]pyran-4,5-dione]
- dose at which activity is shown (Xylella fastidiosa): greater than 0.53 μmol
- diameter of inhibition (Xylella fastidiosa): 3.4 cm
- inhibition of L. crescens (in words) (L. crescens [2]): notable linear relationships between compound dose and antibacterial response

Compound: O=C1CCC(c2ccc(O)c3c2C(=O)C2OC2C3O)c2cccc(O)c21 (stereo not shown) [Compound 21, cladosporol A]
- antibacterial activity (in words) (Vibrio harveyi): modest antibacterial activity
- antibacterial activity (in words) (Micrococcus luteus): modest antibacterial activity
- antibacterial activity (in words) (MRSA): modest antibacterial activity
- antibacterial activity (in words) (E. coli [4]): modest antibacterial activity

Compound: C/C=C/c1cc2c(c(=O)o1)C(=O)CC(C)O2 (racemic) [Compound 2, (E)-2-methyl-7-(prop-1-en-1-yl)-2,3-dihydropyrano[4,3-b]pyran-4,5-dione]
- inhibition of Xf (in words) (Xylella fastidiosa): consistent, somewhat linear relationship between compound dose and antibacterial response; also recorded: more potent than 1; also recorded: potent inhibitor
- inhibition of Xf (in words) (Xylella fastidiosa; listed as deoxyradicinin): low micromolar inhibitor
- inhibition of L. crescens (in words) (L. crescens [2]): notable linear relationships between compound dose and antibacterial response; also recorded: most potent inhibitor of L. crescens tested; also recorded: potently inhibit; also recorded: potent inhibitor
- inhibition of L. crescens (in words) (L. crescens [2]; dose 1.06 μmol and higher): complete inhibition
- inhibition of L. crescens (in words) (L. crescens [2]; listed as deoxyradicinin): nanomolar inhibitor
- diameter of inhibition (L. crescens [2]; lowest tested dose of 0.053 μmol): 4.0 cm

Compound: C/C=C/C(=O)c1c(O)cc(/C=C/C)oc1=O [Compound 4, 3-((E)-but-2-enoyl)-4-hydroxy-6-((E)-prop-1-en-1-yl)-2H-pyran-2-one]
- inhibition of L. crescens (in words) (L. crescens [2]): notable linear relationships between compound dose and antibacterial response

Compound: C/C=C/c1cc2c(c(=O)o1)C(=O)C[C@H](C)O2 (single isomer, unassigned) [(−)-2, (−)-deoxyradicinin]
- inhibition of L. crescens (in words) (L. crescens [2]): potently inhibit

Compound: CO/N=C(\C(=O)N[C@@H]1C(=O)N2C(C(=O)O)=C(COC(C)=O)CS[C@H]12)c1csc(N)n1 [cefotaxime]
- concentration providing nearly complete inhibition of L. crescens (L. crescens [1]): 0.7 µM

Compound: C/C=C/c1cc2c(c(=O)o1)C(=O)[C@@H](O)[C@H](C)O2 [Compound 1, radicinin]
- inhibition of Xf (in words) (Xylella fastidiosa): consistent, somewhat linear relationship between compound dose and antibacterial response
- diameter of inhibition (Xylella fastidiosa): 10 cm
- inhibition of Xf in vitro (in words) (Xf): inhibitor of Xf in vitro
- inhibition of L. crescens (in words) (L. crescens [2]): notable linear relationships between compound dose and antibacterial response
